Assay results as given in paper PMC12429925 (Molecules, 2025).
Like-named read-outs stand apart in the source and are kept apart here.

What was measured:
Experiment in all cases: cells
Assay type in all cases: cell-based
[1] = system: A2780 (human ovarian carcinoma) cells; details: for IC50: Homo sapiens
[2] = system: A2780cis (ovarian carcinoma) cells; details: Homo sapiens
[3] = system: A549 (lung carcinoma) cells; details: Homo sapiens
[4] = system: MCF7 (breast carcinoma) cells; details: Homo sapiens
[5] = system: HT29 (colorectal carcinoma) cells; details: Homo sapiens
[6] = system: CCD18Co (non-malignant human fibroblasts); details: CCD-18Co
[7] = system: panel of five different human tumor cell lines; details: read-out: IC50 range over tumor cell lines
[8] = A2780, 72 h, read-out: IC50 A2780
[9] = A549, 72 h, read-out: IC50 A549
[10] = MCF7, 72 h, read-out: IC50 MCF7
[11] = HT-29, 72 h, read-out: IC50 HT29

| Structure (SMILES) | IC50 [1, 8] [µM] | IC50 ([2]; 72 h, read-out: IC50 A2780cis) [µM] | IC50 [3, 9] [µM] | IC50 [4, 10] [µM] | IC50 [5, 11] [µM] | IC50 ([6]; 72 h, read-out: IC50 CCD18Co) [µM] | also measured |
| --- | --- | --- | --- | --- | --- | --- | --- |
| COc1cc(CNC(=O)CCCCC=CC(C)C)ccc1O [A, 8-methyl-N-vanillyl-6-nonenamide, reference compound] | 15.9 | 84.3 | 70.3 | 42.1 | 51 | > 100 | Selectivity index SI (IC50 CCD18Co/IC50 A2780) [1]: >6.3; IC50 ([1]; A2780, read-out: IC50 A2780, converted into μg/mL): ~4.86 µg/mL; IC50 ([2]; read-out: IC50 A2780cis, converted into μg/mL): 25.8 µg/mL; IC50 ([3]; A549, read-out: IC50 A549, converted into μg/mL): 21.5 µg/mL; IC50 ([4]; MCF7, read-out: IC50 MCF7, converted into μg/mL): 12.9 µg/mL; IC50 ([5]; HT-29, read-out: IC50 HT29, converted into μg/mL): 15.6 µg/mL; IC50 ([6]; read-out: IC50 CCD18Co, converted into μg/mL): > 30.5 µg/mL; IC50 [7]: 15 to 84 µM |
| CCCCCCCCCCCC(=O)NCc1ccc(O)c(OC)c1 [Compound 15, N-[(4-Hydroxy-3-methoxy)benzyl]dodecanamide] | < 10 | – | – | – | – | – | – |
| CCCCCCCCCCCCC(=O)NCc1ccc(O)c(OC)c1 [Compound 17, N-[(4-Hydroxy-3-methoxy)benzyl]tridecanamide] | < 10 | – | – | – | – | – | – |
| CCCCCCCCCCCCCC(=O)NCc1ccc(O)c(OC)c1 [Compound 19, N-[(4-Hydroxy-3-methoxy)benzyl]tetradecanamide] | < 10 | – | – | – | – | – | – |
| CCCCCCCCCCCCCCC(=O)NCc1ccc(O)c(OC)c1 [Compound 21, N-[(4-Hydroxy-3-methoxy)benzyl]pentadecanamide] | < 10 | – | – | – | – | – | – |
| CCCCCCCCCCCCCCCCC(=O)NCc1ccc(O)c(OC)c1 [Compound 25, N-[(4-Hydroxy-3-methoxy)benzyl]heptadecanamide] | – | > 100 | 60.5 | 38.4 | 78.5 | > 100 | – |
| CCCCCCCCCCCCCCCCCC(=O)NCc1ccc(O)c(OC)c1 [Compound 27, N-[(4-Hydroxy-3-methoxy)benzyl]octadecanamide] | – | 76.4 | 50.3 | 32.6 | 42.4 | > 100 | Selectivity index SI (IC50 CCD18Co/IC50 A2780) [1]: >29.0 |
| CCCCCCCCCCCCCCCCCCC(=O)NCc1ccc(O)c(OC)c1 [Compound 29, N-[(4-Hydroxy-3-methoxy)benzyl]nonadecanamide] | – | 59.5 | 55.3 | 15.9 | 68.4 | > 100 | – |
